# In ChEMBL document CHEMBL2074050, “Reversal of MRP-mediated multidrug resistance in human lung cancer cells by the antiprogestatin drug RU486” (Biochem Biophys Res Commun, 1999):
# What was measured:
# Format in all cases: functional, cell-based
# [1] = target: T1, Multidrug resistance-associated protein 1 (Homo sapiens, UniProt P33527); experiment: TP_TRANSPORTER: increase in Calcein intracellular accumulation (Calcein: 0.5 uM, Probenecid: 2000 uM) in GLC4/Sb30 cells; conditions: glc4/sb30, 2000 µM
# [2] = target: T1, Multidrug resistance-associated protein 1; experiment: TP_TRANSPORTER: increase in Calcein intracellular accumulation (Calcein: 0.5 uM, Progesterone: 50 uM) in GLC4/Sb30 cells; conditions: glc4/sb30, 50 µM
# [3] = target: T1, Multidrug resistance-associated protein 1; experiment: TP_TRANSPORTER: increase in Calcein intracellular accumulation (Calcein: 0.5 uM, RU486: 50 uM) in GLC4/Sb30 cells; conditions: glc4/sb30, 50 µM
# T1 sequence (P33527 whole entry): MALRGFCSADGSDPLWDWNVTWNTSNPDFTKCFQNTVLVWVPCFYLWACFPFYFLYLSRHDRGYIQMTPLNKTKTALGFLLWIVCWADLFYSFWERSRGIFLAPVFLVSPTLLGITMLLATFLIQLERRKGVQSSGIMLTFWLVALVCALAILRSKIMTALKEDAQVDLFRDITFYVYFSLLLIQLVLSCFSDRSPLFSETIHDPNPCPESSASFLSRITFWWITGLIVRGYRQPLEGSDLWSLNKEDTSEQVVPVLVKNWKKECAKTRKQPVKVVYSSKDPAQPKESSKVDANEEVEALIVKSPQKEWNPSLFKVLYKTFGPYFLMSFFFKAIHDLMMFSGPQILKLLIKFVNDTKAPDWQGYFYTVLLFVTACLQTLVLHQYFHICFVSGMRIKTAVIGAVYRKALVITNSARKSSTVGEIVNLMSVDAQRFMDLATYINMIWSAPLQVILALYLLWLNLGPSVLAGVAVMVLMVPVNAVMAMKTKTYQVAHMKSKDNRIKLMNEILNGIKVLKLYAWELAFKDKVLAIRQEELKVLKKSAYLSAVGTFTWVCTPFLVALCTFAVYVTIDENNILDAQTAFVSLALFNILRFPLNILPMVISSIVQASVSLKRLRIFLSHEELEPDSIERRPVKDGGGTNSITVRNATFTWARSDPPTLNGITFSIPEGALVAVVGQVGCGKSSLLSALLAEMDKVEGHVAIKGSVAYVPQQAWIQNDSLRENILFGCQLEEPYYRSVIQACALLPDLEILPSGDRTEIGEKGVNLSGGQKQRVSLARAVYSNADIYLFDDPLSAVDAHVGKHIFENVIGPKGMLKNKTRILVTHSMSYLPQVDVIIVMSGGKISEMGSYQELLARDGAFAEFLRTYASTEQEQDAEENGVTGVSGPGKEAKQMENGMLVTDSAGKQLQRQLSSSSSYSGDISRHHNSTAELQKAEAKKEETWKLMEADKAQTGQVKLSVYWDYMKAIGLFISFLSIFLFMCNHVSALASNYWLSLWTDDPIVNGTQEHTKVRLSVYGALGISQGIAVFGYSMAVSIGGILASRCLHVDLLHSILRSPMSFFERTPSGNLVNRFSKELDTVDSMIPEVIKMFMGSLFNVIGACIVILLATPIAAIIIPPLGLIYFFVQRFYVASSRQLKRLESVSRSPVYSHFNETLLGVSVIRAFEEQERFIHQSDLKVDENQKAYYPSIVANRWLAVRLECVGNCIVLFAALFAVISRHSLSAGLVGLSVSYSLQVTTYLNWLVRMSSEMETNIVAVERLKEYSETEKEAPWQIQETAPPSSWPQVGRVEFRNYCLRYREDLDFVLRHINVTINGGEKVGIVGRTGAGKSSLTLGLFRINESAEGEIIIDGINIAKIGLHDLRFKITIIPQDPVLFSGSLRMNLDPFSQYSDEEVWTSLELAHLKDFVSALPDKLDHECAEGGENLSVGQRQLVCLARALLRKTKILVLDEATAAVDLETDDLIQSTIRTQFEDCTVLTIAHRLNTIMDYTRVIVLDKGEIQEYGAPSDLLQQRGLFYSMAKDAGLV
smiles,measurement,setting,value
CCCN(CCC)S(=O)(=O)c1ccc(C(=O)O)cc1 [PROBENECID],Activity,[1],inhibitor [+]
CC(=O)[C@H]1CC[C@H]2[C@@H]3CCC4=CC(=O)CC[C@]4(C)[C@H]3CC[C@]12C [PROGESTERONE],Activity,[2],inhibitor [+]
CC#C[C@]1(O)CC[C@H]2[C@@H]3CCC4=CC(=O)CCC4=C3[C@@H](c3ccc(N(C)C)cc3)C[C@@]21C [MIFEPRISTONE],Activity,[3],inhibitor [+]
